Article PMC9298916, “The Discovery and Structure‐Activity Evaluation of (+)‐Floyocidin B and Synthetic Analogs” (Chemmedchem, 2021)
Converted amounts (≈) assume the structure as drawn. Like-named read-outs stand apart in the source and are kept apart here.

Legend:
[1] = Microsomal stability, human; type: in vitro ADME; conditions: 1 µM compound; for Microsomal stability CLint, Human / Microsomal stability t1/2, Human: human liver microsomes 0.5 mg/mL
Protocol: (§1) 2.4. Assay descriptions for the profiling of all four stereoisomers of (+)-floyocidin B and (−)-avicennone C,1 the avicennone C-floyocidin B hybrids 35, ent-35, 36 and ent-36 as well as the natural product (+)-floyocidin A. […]
(§2) Pooled liver microsomes are purchased. Microsomes are stored at –80 °C prior to use. Microsomes (final protein concentration 0.5 mg/mL), 0.1 M phosphate buffer pH 7.4, and test compound (final substrate concentration 1 µM; final DMSO concentration 0.25%) are preincubated at 37 °C prior to the addition of NADPH (final concentration 1 mM) to initiate the reaction. A minus cofactor control i ncubation is included for each compound tested where 0.1 M phosphate buffer pH 7.4 is added instead of NADPH. Two control compounds are included. All incubations are performed singularly for each test compound. Each compound is incubate d for 0, 5, 15, 30, and 45 min. The control is incubated for 45 min only. The reactions are stopped by transferring incubate into acetonitrile at the appropriat e time points, in a 1:3 ratio. The termination plates are centrifuged at 3,000 rpm for 20 min at 4 °C to precipitate the protein.
(§3) From a plot of ln peak area ratio (compound peak area/internal standard peak area) against time, the gradient of the line is determined. Subsequently, half -life and intrinsic clearance are calculated using the equations below:
(§4) Elimination rate constant (k) = (- gradient)
(§5) Intrinsic clearance (CL )(µL/min/mg protein) = V x 0.693 […]
(§6) where V = Incubation volume (µL)/Microsomal protein (mg)
(§7) Relevant control compounds are assessed, ensuring intrinsic clearance values fall within the specified limits (if available). […]

[2] = physchem; type: physicochemical; conditions: for chromatographic logD: pH 7.4, Log D pH 7.4
Protocol: 2.4. Assay descriptions for the profiling of all four stereoisomers of (+)-floyocidin B and (−)-avicennone C,1 the avicennone C-floyocidin B hybrids 35, ent-35, 36 and ent-36 as well as the natural product (+)-floyocidin A.
Determination of logD 7.4
LogD values at pH 7.4 were determined by a standardized HPLC method derived from by Genieser et al.8 The calculation of the logD value for measured compounds is performed by comparison of the retention times with standard compounds of known distribution coefficients between 1 -octanol and water at pH 7.4. […]
8 Krass, J. D., Jastorff, B., and Genieser, H.-G. Anal. Chem. 1997, 69, 2575–2581. […]

[3] = tested on: M. catarrhalis ATCC25238I; test: Micro-broth dilution growth inhibition, M. catarrhalis; type: cell-based
[4] = tested on: Caco-2 cells; test: Cellular permeability assay utilizing Caco2 cell line; conditions: 10 µM, 120 min; for Caco‐2 permeability Papp +Elacridar / Caco‐2 permeability recovery +Elacridar: A2B in the presence of elacridar
[5] = tested on: HepG2 cells; test: Cytotoxicity on HepG2 cells (CellTiterGlo); type: cell-based; conditions: 40 h
Protocol: (§8) Cytotoxicity on THP1 and HepG2 cells
(§9) After 4 hours of HepG2 cell line (provided by ATCC) plating at 2.500 cells /well in 384-w plates, compounds were added to the cells. After an incubation at 37 °C for 40 h, the CellTiterGlo assay (provided by Promega) was performed.
(§10) Luminescence measurement is related to the cell viability. Compound activity is determined by using the control wells with no treatment as control (100% of growth). The assay was performed identically with THP1 cells. All incubations were […]

[6] = tested on: THP1 cells; test: Cytotoxicity on THP1 cells (CellTiterGlo); type: cell-based; conditions: THP1 cells; 40 h
Protocol: as §8, §9, §10

[7] = tested on: C. albicans FH2173; test: Micro-broth dilution growth inhibition, C. albicans (ATP quantification); type: cell-based
[8] = tested on: E. coli ATCC25922; test: Micro-broth dilution growth inhibition, E. coli (CAMH); type: cell-based; conditions: Escherichia coli, 18 h
[9] = tested on: S. aureus ATCC25923; test: Micro-broth dilution growth inhibition, S. aureus; type: cell-based; conditions: Staphylococcus aureus, 18 h
[10] = tested on: P. aeruginosa ATCC27853; test: Micro-broth dilution growth inhibition, P. aeruginosa; type: cell-based; conditions: Pseudomonas aeruginosa, 18 h
[11] = tested on: E. coli ATCC25922 MHC; test: Micro-broth dilution growth inhibition, E. coli in CAMH with 44 mM sodium bicarbonate (MHC); type: cell-based; conditions: E. coli ATCC25922 MHC (CAMH + 44 mM sodium bicarbonate)
[12] = Microsomal stability, mouse; type: in vitro ADME; conditions: for Microsomal stability CLint, Mouse / Microsomal stability t1/2, Mouse: mouse liver microsomes 0.5 mg/mL
Protocol: as §1, §2, §3, §4, §5, §6, §7

[13] = Cellular permeability assay utilizing Caco2 cell line; conditions: human; for Papp at 120 min, 10 µM: Caco-2, Caco‐2 permeability Papp +Elacridar, A2B in the presence of elacridar; for Papp A→B at 120 min, 10 µM: Caco-2, Caco‐2 permeability Papp A2B, A2B
[14] = Escherichia coli, ATCC25922, 18 h, read-out: MIC
[15] = Candida albicans, FH2173, 48 h, read-out: MIC

| Structure (SMILES) | Microsomal stability CLint, Human [1] | Microsomal stability t1/2, Human [1] | Log D pH 7.4 [2] | MIC [3] | Caco‐2 permeability Papp +Elacridar [4] | Caco‐2 permeability recovery +Elacridar [4] | Caco‐2 permeability Papp A2B [4] | Caco‐2 permeability recovery A2B [4] | Cytotoxicity TC50 HepG2 [5] | Cytotoxicity TC50 THP1 [6] | MIC ([7]; 48 h) | MIC [8] | chromatographic logD [2] | MIC [9] | MIC [10] | MIC [11, 14] | MIC [7, 15] | Microsomal stability CLint, Mouse ([12]; 1 µM compound) | Microsomal stability t1/2, Mouse ([12]; 1 µM compound) | further results |
| --- | --- | --- | --- | --- | --- | --- | --- | --- | --- | --- | --- | --- | --- | --- | --- | --- | --- | --- | --- | --- |
| CC(C)=CCC12OC1C(O)c1ccccc1C2=O (stereo not drawn) [compound 2, (−)‐avicennone C, reference compound] | 150 μL/min/mg protein | 9.26 min | 2.86 | 64 µg/mL (≈ 262 µM) | 393 10^−7 cm s^−1 | 83.4% | 407 10^−7 cm s^−1 | 86.7% | >30 µM | 30 µM | 128 µg/mL (≈ 524 µM) | – | – | – | – | – | – | – | – | – |
| CCC/C=C/C=C/C1=C(CO)[C@@H](O)[C@H]2O[C@@]2(CC=C(C)C)C1=O [compound 3, (1R,5R,6R)‐3‐((1E,3E)‐Hepta‐1,3‐dien‐1‐yl)‐5‐hydroxy‐4‐(hydroxymethyl)‐1‐(3‐methylbut‐2‐en‐1‐yl)‐7‐oxabicyclo[4.1.0]hept‐3‐en‐2‐one] | – | – | – | – | – | – | – | – | – | – | – | > 128 µg/mL | 4.11 | 64 µg/mL (≈ 201 µM) | > 128 µg/mL | > 128 µg/mL | > 128 µg/mL | – | – | – |
| CCC/C=C/c1cc2c(cn1)[C@H](O)[C@H]1O[C@@]1(CC=C(C)C)C2=O [compound 27, (1aR,2S,7aR)‐2‐Hydroxy‐7 a‐(3‐methylbut‐2‐en‐1‐yl)‐5‐((E)‐pent‐1‐en‐1‐yl)‐1 a,7 a‐dihydrooxireno[2,3‐g]isoquinolin‐7(2H)‐one] | – | – | – | – | – | 38.5% | – | 42.1% | 10.7 µM | 10.6 µM | – | > 128 µg/mL | 4.14 | > 128 µg/mL | > 128 µg/mL | > 128 µg/mL | > 128 µg/mL | – | – | microsomal CLint at 1 µM ([1]; human, pooled liver microsomes, pH 7.4, human liver microsomes 0.5 mg/mL): 95.8 µL/min/mg; half-life at 1 µM ([1]; human, pooled liver microsomes, pH 7.4, human liver microsomes 0.5 mg/mL, read-out: Microsomal stability t1/2, Human): 14.5 min; microsomal CLint at 1 µM ([12]; mouse, pooled liver microsomes, pH 7.4, mouse liver microsomes 0.5 mg/mL, 1 µM compound, read-out: Microsomal stability CLint, Mouse): 1500 µL/min/mg; half-life at 1 µM ([12]; mouse, pooled liver microsomes, pH 7.4, mouse liver microsomes 0.5 mg/mL, 1 µM compound, read-out: Microsomal stability t1/2, Mouse): 0.924 min; Papp at 120 min, 10 µM [13]: 8.77 ×10⁻⁶ cm/s; Papp A→B at 120 min, 10 µM [13]: 11.7 ×10⁻⁶ cm/s |
| CC(C)=CCC12OC1C(O)c1ccccc1C2=O (stereo not shown) [compound 37] | 54.6 μL/min/mg protein | 25.4 min | – | 128 µg/mL (≈ 524 µM) | – | 80.9% | – | 74.8% | 30 µM | 27.2 µM | 128 µg/mL (≈ 524 µM) | – | 2.82 | – | – | – | – | – | – | microsomal CLint at 1 µM ([12]; mouse, microsomes, pH 7.4, Microsomal stability CLint): > 1500 µL/min/mg; Papp at 120 min, 10 µM [13]: 27.9 ×10⁻⁶ cm/s; Papp A→B at 120 min, 10 µM [13]: 32.6 ×10⁻⁶ cm/s |
| CC(C)=CCC12OC1C(O)c1ccccc1C2=O (stereo not shown) [compound 38] | 76.0 μL/min/mg protein | 18.2 min | 2.84 | – | 331 10^−7 cm s^−1 | 132% | 620 10^−7 cm s^−1 | 127% | 9.49 µM | 30 µM | – | > 128 µg/mL | – | > 128 µg/mL | > 128 µg/mL | > 128 µg/mL | > 128 µg/mL | 1070 μL/min/mg protein | 1.29 min | MIC ([3]; Moraxella catarrhalis, ATCC25238I, read-out: MIC): 128 µg/mL (≈ 524 µM) |
| CCCC=Cc1cc2c(cn1)C(O)C1OC1(CC=C(C)C)C2=O (stereo not drawn) [ent‐27] | 44.3 μL/min/mg protein | 31.3 min | 4.16 | 8 µg/mL (≈ 25.5 µM) | 64.4 10^−7 cm s^−1 | 15.3% | 40.5 10^−7 cm s^−1 | 8.69% | 10.4 µM | 11.5 µM | – | – | – | – | – | – | – | 764 μL/min/mg protein | 1.81 min | Caco‐2 permeability recovery +Elacridar ([4]; listed as ent-27): 15.3%; Caco‐2 permeability recovery A2B ([4]; listed as ent-27): 8.69% |
| CC(C)=CCC12OC1C(O)c1ccccc1C2=O (stereo not drawn) [ent‐37] | 73.5 μL/min/mg protein | 18.9 min | 2.82 | – | 300 10^−7 cm s^−1 | 74.6% | 360 10^−7 cm s^−1 | 81.3% | 30 µM | 25.2 µM | 128 µg/mL (≈ 524 µM) | – | – | – | – | – | – | 370 μL/min/mg protein | 3.75 min | MIC ([11]; 18 h): 128 µg/mL; Caco‐2 permeability recovery +Elacridar ([4]; listed as ent-37): 74.6%; Caco‐2 permeability recovery A2B ([4]; listed as ent-37): 81.3% |
